What is called IC50 is the concentration needed to halve the response being measured.

Our source for the IC50 values is patent EP4562003B1, “NOVEL 7-SUBSTITUTED INDOLE SULFONAMIDE DERIVATIVES” (F. Hoffmann-La Roche AG, priority 2022, dated 2024).

The assay has as its target human GPR17 short isoform (Homo sapiens, UniProt Q13304). The experiment in a line: GPR17 cAMP assay (TR-FRET cAMP quantification, antagonist mode). The assay is classed as cell-based. Conditions: CHO-K1 cells stably expressing human GPR17 short isoform; EC80 of agonist MDL29,951; forskolin 15µM; IBMX 0.5mM; 30 minutes at room temperature; read-out: hGPR17 cAMP IC50. The method, then:
GPR17 cAMP Assay Protocol:
CHO-K1 cells stably expressing vector containing untagged human GPR17 short isoform (Roche) were cultured at 37°C / 5% CO2 in DMEM (Dulbecco's Modified Eagle Medium):F-12 (1:1) supplemented with 10% foetal bovine serum and 400 µg/ml Geneticin.
Changes in intracellular cyclic adenosine monophosphate (cAMP) levels were quantified using the Nano-TRF Detection Assay kit (Roche Diagnostics, Cat. No. 05214386001). This assay allows for direct cAMP quantification in a homogeneous solution. cAMP is detected based on time-resolved fluorescence energy transfer (TR-FRET) and competitive binding of ruthenylated cAMP and endogenous cAMP to an anti-cAMP monoclonal antibody labeled with AlexaFluor-700. The Ruthenium complex serves as the FRET donor and transfers energy to AlexaFluor-700. The FRET signal is inversely proportional to the cAMP concentration.
CHO-GPR17S cells were detached with Accutase and resuspended in assay buffer consisting of Hank's Balanced Salt Solution (HBSS), 10mM HEPES (4-(2-hydroxyethyl) piperazine-1-ethanesulfonic acid solution) and 0.1% bovine serum albumin (pH 7.4). The cells were seeded in black 384-well plates (Corning) at a density of 10'000 cells / 20µl assay buffer until the addition of compounds.
Test antagonist compounds were serially diluted in dimethyl sulfoxide (DMSO) and spotted in 384-well plates. The compounds were then diluted in HBSS buffer supplemented with an EC80 concentration of MDL29,951 (3-(2-Carboxy-4,6-dichloroindol-3-yl)propionic acid) (GPR17 agonist) plus 3-Isobutyl-1-methylxanthine (IBMX) (0.5mM final concentration) and added to the cells at room temperature. Forskolin (15µM final concentration) was added 5 minutes after the test compounds and the cells were incubated at room temperature for 30 minutes. The assay was stopped by adding cAMP detection mix (containing detergents for cell lysis) for 90 minutes at room temperature.
Cellular cAMP was measured using a Paradigm reader (Molecular Devices). The raw data was used to calculate the FRET signal based on the assay's P-factor as per cAMP kit instructions. The data was normalized to the maximal activity of a reference antagonist and dose response curves were fitted to the percent activity of the test compounds using a sigmoidal dose response model (Genedata Screener).
Results in the hGPR17 cAMP assay are provided for compounds of formula I in Table 1 Table 1: […]
(cAMP levels reflect the balance of adenylyl cyclase and phosphodiesterase activity.)

Chain of human GPR17 short isoform (Q13304 29-367): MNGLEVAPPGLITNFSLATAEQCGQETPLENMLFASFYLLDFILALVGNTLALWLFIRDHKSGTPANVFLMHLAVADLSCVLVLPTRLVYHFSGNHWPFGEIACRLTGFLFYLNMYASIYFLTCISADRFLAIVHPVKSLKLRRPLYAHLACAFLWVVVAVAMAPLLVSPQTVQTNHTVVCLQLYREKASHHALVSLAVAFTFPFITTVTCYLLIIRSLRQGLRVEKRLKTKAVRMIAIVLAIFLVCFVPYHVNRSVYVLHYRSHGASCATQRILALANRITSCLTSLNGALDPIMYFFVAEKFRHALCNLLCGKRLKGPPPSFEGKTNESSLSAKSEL

In the case of `COc1nc(NS(=O)(=O)c2c[nH]c3c(-c4ncccn4)c(Cl)ccc23)nc(OC)c1OCC(F)F` [Example 1, 6-chloro-N-[5-(2,2-difluoroethoxy)-4,6-dimethoxy-pyrimidin-2-yl]-7-(2-pyrimidyl)-1H-indole-3-sulfonamide], the IC50 stood at 48 nM.

Consider `COc1nc(NS(=O)(=O)c2c[nH]c3c(-c4ncco4)c(Cl)ccc23)nc(OC)c1OCC(F)F` [Example 2, 6-chloro-N-[5-(2,2-difluoroethoxy)-4,6-dimethoxy-pyrimidin-2-yl]-7-oxazol-2-yl-1H-indole-3-sulfonamide], for which the IC50 stood at 98 nM.

Consider `COc1nc(NS(=O)(=O)c2c[nH]c3c(-c4ncccn4)c(Cl)ccc23)nc(OC)c1CC(F)F` [Example 3, 6-chloro-N-[5-(2,2-difluoroethyl)-4,6-dimethoxy-pyrimidin-2-yl]-7-(2-pyrimidyl)-1H-indole-3-sulfonamide], for which the IC50 is 46 nM. For `COc1nc(NS(=O)(=O)c2c[nH]c3c(-c4cccnn4)c(Cl)ccc23)nc(OC)c1OCC(F)F` [Example 4, 6-chloro-N-[5-(2,2-difluoroethoxy)-4,6-dimethoxy-pyrimidin-2-yl]-7-pyridazin-3-yl-1H-indole-3-sulfonamide], the IC50 is 44 nM. With `COc1nc(NS(=O)(=O)c2c[nH]c3c(-c4nccn4C)cccc23)nc(OC)c1CC(F)F` [Example 5, N-[5-(2,2-difluoroethyl)-4,6-dimethoxy-pyrimidin-2-yl]-7-(1-methylimidazol-2-yl)-1H-indole-3-sulfonamide] the figure was 26 nM.

On to `COc1nc(NS(=O)(=O)c2c[nH]c3c(-c4cccnn4)c(Cl)ccc23)nc(OC)c1CC(F)F` [Example 6, 6-chloro-N-[5-(2,2-difluoroethyl)-4,6-dimethoxy-pyrimidin-2-yl]-7-pyridazin-3-yl-1H-indole-3-sulfonamide], for which the IC50 is 42 nM. On to `COc1nc(NS(=O)(=O)c2c[nH]c3c(-c4nccn4C)cccc23)nc(OC)c1OCC(F)F` [Example 7, N-[5-(2,2-difluoroethoxy)-4,6-dimethoxy-pyrimidin-2-yl]-7-(1-methylimidazol-2-yl)-1H-indole-3-sulfonamide], for which the IC50 was 34 nM. For the compound `COc1nc(NS(=O)(=O)c2c[nH]c3c(-c4nccn4C)c(Cl)ccc23)nc(OC)c1OCC(F)F` [Example 8, 6-chloro-N-[5-(2,2-difluoroethoxy)-4,6-dimethoxy-pyrimidin-2-yl]-7-(1-methylimidazol-2-yl)-1H-indole-3-sulfonamide], the IC50 worked out at 39 nM. Regarding `COc1nc(NS(=O)(=O)c2c[nH]c3c(-c4nccn4C)c(F)ccc23)nc(OC)c1OCC(F)F` [Example 9, N-[5-(2,2-difluoroethoxy)-4,6-dimethoxy-pyrimidin-2-yl]-6-fluoro-7-(1-methylimidazol-2-yl)-1H-indole-3-sulfonamide], the IC50 was determined as 69 nM. Turning to `COc1nc(NS(=O)(=O)c2c[nH]c3c(-c4nccn4C)c(F)ccc23)nc(OC)c1CC(F)F` [Example 10, N-[5-(2,2-difluoroethyl)-4,6-dimethoxy-pyrimidin-2-yl]-6-fluoro-7-(1-methylimidazol-2-yl)-1H-indole-3-sulfonamide], the IC50 worked out at 30 nM. As for `COc1nc(NS(=O)(=O)c2c[nH]c3c(-c4cccnn4)cccc23)nc(OC)c1CC(F)F` [Example 11, N-[5-(2,2-difluoroethyl)-4,6-dimethoxy-pyrimidin-2-yl]-7-pyridazin-3-yl-1H-indole-3-sulfonamide], the IC50 turned out to be 50 nM. With `COc1nc(NS(=O)(=O)c2c[nH]c3c(-c4cccnn4)cccc23)nc(OC)c1OCC(F)F` [Example 12, N-[5-(2,2-difluoroethoxy)-4,6-dimethoxy-pyrimidin-2-yl]-7-pyridazin-3-yl-1H-indole-3-sulfonamide], the IC50 was 85 nM. In the case of `COc1nc(NS(=O)(=O)c2c[nH]c3c(-c4nnccc4C)cccc23)nc(OC)c1OCC(F)F` [Example 13, N-[5-(2,2-difluoroethoxy)-4,6-dimethoxy-pyrimidin-2-yl]-7-(4-methylpyridazin-3-yl)-1H-indole-3-sulfonamide], the IC50 was determined as 57 nM. As for `COc1nc(NS(=O)(=O)c2c[nH]c3c(-c4cocn4)c(Cl)ccc23)nc(OC)c1OCC(F)F` [Example 14, 6-chloro-N-[5-(2,2-difluoroethoxy)-4,6-dimethoxy-pyrimidin-2-yl]-7-oxazol-4-yl-1H-indole-3-sulfonamide], the figure is 32 nM.

In the case of `COc1nc(NS(=O)(=O)c2c[nH]c3c(-c4cnccn4)c(Cl)ccc23)nc(OC)c1CC(F)F` [Example 15, 6-chloro-N-[5-(2,2-difluoroethyl)-4,6-dimethoxy-pyrimidin-2-yl]-7-pyrazin-2-yl-1H-indole-3-sulfonamide], the IC50 came out at 27 nM. With `COc1nc(NS(=O)(=O)c2c[nH]c3c(-c4cnccn4)c(Cl)ccc23)nc(OC)c1OCC(F)F` [Example 16, 6-chloro-N-[5-(2,2-difluoroethoxy)-4,6-dimethoxy-pyrimidin-2-yl]-7-pyrazin-2-yl-1H-indole-3-sulfonamide] the figure was 25 nM; with `COc1nc(NS(=O)(=O)c2c[nH]c3c(-c4ncccn4)cccc23)nc(OC)c1CC(F)F` [Example 17, N-[5-(2,2-difluoroethyl)-4,6-dimethoxy-pyrimidin-2-yl]-7-(2-pyrimidyl)-1H-indole-3-sulfonamide], 806 nM; with `COc1nc(NS(=O)(=O)c2c[nH]c3c(-c4ccccn4)c(Cl)ccc23)nc(OC)c1CC(F)F` [Example 18, 6-chloro-N-[5-(2,2-difluoroethyl)-4,6-dimethoxy-pyrimidin-2-yl]-7-(2-pyridyl)-1H-indole-3-sulfonamide], 19 nM. In the case of `COc1nc(NS(=O)(=O)c2c[nH]c3c(-c4ccccn4)c(Cl)ccc23)nc(OC)c1OCC(F)F` [Example 19, 6-chloro-N-[5-(2,2-difluoroethoxy)-4,6-dimethoxy-pyrimidin-2-yl]-7-(2-pyridyl)-1H-indole-3-sulfonamide], the IC50 was determined as 18 nM.

In the case of `COc1nc(NS(=O)(=O)c2c[nH]c3c(-c4cnccn4)c(Cl)ccc23)nc(OC)c1OC(F)F` [Example 20, 6-chloro-N-[5-(difluoromethoxy)-4,6-dimethoxy-pyrimidin-2-yl]-7-pyrazin-2-yl-1H-indole-3-sulfonamide], the IC50 amounted to 32 nM. On to `COc1nc(NS(=O)(=O)c2c[nH]c3c(-c4cnccn4)c(Cl)ccc23)nc(OC)c1OCCF` [Example 21, 6-chloro-N-[5-(2-fluoroethoxy)-4,6-dimethoxy-pyrimidin-2-yl]-7-pyrazin-2-yl-1H-indole-3-sulfonamide], for which the IC50 worked out at 40 nM. Turning to `COc1nc(NS(=O)(=O)c2c[nH]c3c(-c4ncccn4)c(Cl)ccc23)nc(OC)c1OCCF` [Example 22, 6-chloro-N-[5-(2-fluoroethoxy)-4,6-dimethoxy-pyrimidin-2-yl]-7-(2-pyrimidyl)-1H-indole-3-sulfonamide], the 50% inhibitory concentration (IC50) was 80 nM. Regarding `COc1nc(NS(=O)(=O)c2c[nH]c3c(-c4ncccn4)c(Cl)ccc23)nc(OC)c1OC(F)F` [Example 23, 6-chloro-N-[5-(difluoromethoxy)-4,6-dimethoxy-pyrimidin-2-yl]-7-(2-pyrimidyl)-1H-indole-3-sulfonamide], the IC50 is 50 nM. Regarding `COc1nc(NS(=O)(=O)c2c[nH]c3c(-c4ncccn4)c(Cl)ccc23)nc(OC)c1C1CC1C#N` (stereo not drawn) [Example 24, 6-chloro-N-[5-(2-cyanocyclopropyl)-4,6-dimethoxy-pyrimidin-2-yl]-7-(2-pyrimidyl)-1H-indole-3-sulfonamide], the IC50 was 61 nM. As for `COc1nc(NS(=O)(=O)c2c[nH]c3c(-c4cnccn4)cccc23)nc(OC)c1CC(F)F` [Example 25, N-[5-(2,2-difluoroethyl)-4,6-dimethoxy-pyrimidin-2-yl]-7-pyrazin-2-yl-1H-indole-3-sulfonamide], the figure is 56 nM; as for `COc1nc(NS(=O)(=O)c2c[nH]c3c(-c4ncccn4)c(F)ccc23)nc(OC)c1OCC(F)F` [Example 26, N-[5-(2,2-difluoroethoxy)-4,6-dimethoxy-pyrimidin-2-yl]-6-fluoro-7-(2-pyrimidyl)-1H-indole-3-sulfonamide], 218 nM.

`COc1nc(NS(=O)(=O)c2c[nH]c3c(-c4ncccn4)c(F)ccc23)nc(OC)c1CC(F)F` [Example 27, N-[5-(2,2-difluoroethyl)-4,6-dimethoxy-pyrimidin-2-yl]-6-fluoro-7-(2-pyrimidyl)-1H-indole-3-sulfonamide]: the IC50 came out at 120 nM.
